pIC50, pKd: −log10 of the molar value. Entries after “also recorded” stand apart in the source; their conditions may differ.
Legend:
MIAPACA-2 = assay: Cell proliferation by MTS method, MIAPACA-2; format: cell-based; conditions: Homo sapiens, MIA PaCa-2, Pancreatic Cancer
Text: (§1) (2) Detection of Cell Proliferation by MTS Method
(§2) The MTS assay is a method for indirectly determining the number of living cells via colourimetric method. MTS is a newly synthesised tetrazole compound that reflects cell viability, which can be reduced by succinate dehydrogenase in the mitochondria of living cells to an orange-coloured formazan with an absorbance of the reduced product measured at 490 nm being in proportion to the number of living cells, thus reflecting the cell viability. This assay can be used to evaluate the effect of the compound on the proliferation of pancreatic cancer cells, thereby determining the inhibitory effect of the compound on the proliferation of pancreatic cancer cells and to calculate the IC^50. Each cells were inoculated uniformly into a 96-well plate at a density of 1-20×10^3 cells/well, 100 μL per well, and placed in a constant temperature incubator until the cells adhered to the wall. […] Under light-proof conditions, MTS was added and well mixed, the mixture was placed in a constant temperature incubator at 37° C., and the light absorption value were measured using an enzyme marker at 490 nm and the experiment was repeated for three times, IC50 was calculated with GraphPad5 Prism software.

DU145 = assay: Cell proliferation by MTS method, DU145; format: cell-based; conditions: Homo sapiens, DU-145, Prostate Cancer
Text: as §1, §2

H1975 = assay: Cell proliferation by MTS method, H1975; format: cell-based; conditions: Homo sapiens, NCI-H1975, Lung Cancer
Text: as §1, §2

STAT3 protein = STAT3 protein (Homo sapiens, UniProt P40763); assay: Binding activity to STAT3 protein by microscale thermophoresis (MST); conditions: purified STAT3 recombinant protein
Sequence of STAT3 protein (P40763 whole entry): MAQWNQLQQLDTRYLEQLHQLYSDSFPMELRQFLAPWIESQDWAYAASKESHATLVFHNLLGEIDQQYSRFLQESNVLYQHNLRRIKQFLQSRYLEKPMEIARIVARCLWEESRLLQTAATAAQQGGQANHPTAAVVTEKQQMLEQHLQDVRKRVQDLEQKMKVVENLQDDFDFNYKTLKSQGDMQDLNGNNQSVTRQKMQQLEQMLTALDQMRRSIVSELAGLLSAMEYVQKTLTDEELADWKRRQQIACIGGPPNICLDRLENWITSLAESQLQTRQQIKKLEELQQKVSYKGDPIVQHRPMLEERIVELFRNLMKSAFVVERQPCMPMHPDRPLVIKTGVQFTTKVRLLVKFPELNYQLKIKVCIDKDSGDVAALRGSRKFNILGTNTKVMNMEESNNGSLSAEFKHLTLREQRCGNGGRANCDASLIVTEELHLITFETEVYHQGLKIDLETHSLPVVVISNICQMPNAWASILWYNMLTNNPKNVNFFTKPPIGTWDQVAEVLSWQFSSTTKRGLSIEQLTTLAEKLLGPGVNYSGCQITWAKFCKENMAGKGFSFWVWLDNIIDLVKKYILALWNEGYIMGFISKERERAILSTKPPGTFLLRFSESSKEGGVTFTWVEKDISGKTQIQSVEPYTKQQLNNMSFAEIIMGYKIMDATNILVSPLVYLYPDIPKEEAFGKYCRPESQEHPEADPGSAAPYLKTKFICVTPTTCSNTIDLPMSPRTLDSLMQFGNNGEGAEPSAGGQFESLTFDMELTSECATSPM
Procedure, shortened: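 His-tag-labelled purified recombinant STAT3 (final 100–200 nM) was mixed with compounds at 16 concentrations in MST buffer and incubated 30 min protected from light. Thermophoresis read in capillaries gave KD values.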

PLC/PRF-5 = assay: Cell proliferation by MTS method, PLC/PRF-5; format: cell-based; conditions: Homo sapiens, Liver Cancer
Text: as §1, §2

HCT-116 = assay: Cell proliferation by MTS method, HCT-116; format: cell-based; conditions: Homo sapiens, Colon Cancer
Text: as §1, §2

SMMC7721 = assay: Cell proliferation by MTS method, SMMC7721; format: cell-based; conditions: Homo sapiens, SMMC-7721, Liver Cancer
Text: as §1, §2

HCT8 = assay: Cell proliferation by MTS method, HCT8; format: cell-based; conditions: Homo sapiens, HCT-8, Colon Cancer
Text: as §1, §2

HepG2 = assay: Cell proliferation by MTS method, HepG2; format: cell-based; conditions: Homo sapiens, Liver Cancer
Text: as §1, §2

H1299 = assay: Cell proliferation by MTS method, H1299; format: cell-based; conditions: Homo sapiens, NCI-H1299, Lung Cancer
Text: as §1, §2

PANC-1 = assay: Cell proliferation by MTS method, PANC-1; format: cell-based; conditions: Homo sapiens, Pancreatic Cancer
Text: as §1, §2

[1] = system: human pancreatic cancer cells PANC-1; assay: Subcutaneous tumor-bearing experiment in nude mice, PANC-1
Procedure: (1-10)×10^6 human pancreatic cancer cells PANC-1 and MIAPACA-2 were injected subcutaneously into the right side of the back of immunodeficient mice (BALB/c-nude, nude mice, 5-6 weeks), and when the tumours grew to about 100 mm^3, the mice were evenly divided into five groups, i. e. blank control group; 5 mg/kg WB737 low-dose group; 10 mg/kg WB737 medium-dose group; 20 mg/kg WB737 high-dose group; 10 mg/kg IACS-010759 positive control group; all the above compounds were formulated with 0.5% MC and administered by gavage. Tumour volume and mouse weight were measured every four days, and tumour volume was calculated according to the formula of volume=length×width^2×0.52. After 3 weeks post-administration, mice were sacrificed and subcutaneous tumours were peeled off, weighed and photographed.

SW1990 = assay: Cell proliferation by MTS method, SW1990; format: cell-based; conditions: Homo sapiens, Pancreatic Cancer
Text: as §1, §2

LNCAP = assay: Cell proliferation by MTS method, LNCAP; format: cell-based; conditions: Homo sapiens, Prostate Cancer
Text: as §1, §2

H23 = assay: Cell proliferation by MTS method, H23; format: cell-based; conditions: Homo sapiens, NCI-H23, Lung Cancer
Text: as §1, §2

[2] = system: STAT3-Tyr705 and Ser727 in pancreatic cancer cells; assay: Western blot of STAT3 phosphorylation in pancreatic cancer cells; format: cell-based; conditions: 12-24 h, FIG. 1A
Text: Finally, the expression levels of protein were detected by Odyssey scanner.

PC-9 = assay: Cell proliferation by MTS method, PC-9; format: cell-based; conditions: Homo sapiens, Lung Cancer
Text: as §1, §2

MGC803 = assay: Cell proliferation by MTS method, MGC803; format: cell-based; conditions: Homo sapiens, MGC-803, gastric Cancer
Text: as §1, §2

STAT3 SH2 domain = STAT3 SH2 domain (Homo sapiens, UniProt P40763); assay: Microscale thermophoresis binding to STAT3 SH2 domain; conditions: MST, FIG. 5A; read-out: affinity for the STAT3 SH2 domain
Sequence of STAT3 SH2 domain (P40763 580-670 limits assumed): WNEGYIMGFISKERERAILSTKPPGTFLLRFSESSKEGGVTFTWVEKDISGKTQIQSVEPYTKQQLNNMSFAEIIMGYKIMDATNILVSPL
Text: The microscale thermophoresis (MST) technique is a simple, rapid, and accurate method for quantifying biomolecular interactions. It can measure the movement of molecules in a microscopic temperature gradient field, as well as detect changes of molecular hydration shell, charge and size. When the Nanotemper microscale thermophoresis instrument locally heated by a infrared laser, molecules will move in a directional manner, then the molecular distribution ratio in the temperature gradient field are analyzed by a fluorescence to detect whether a small molecule compound binds to a target protein. The experimental operation is as follows: firstly, compounds to be tested are diluted in a gradient using MST test buffer, total 16 concentrations being configured; subsequently, the purified STAT3 recombinant protein is labeled using the HIS tag labeling kit, and the final concentration of the labeled protein is 100-200 nM; the labeled STAT3 proteins are well mixed with the diluted compounds and incubated and protected from light for 30 minutes; finally the samples were loaded by capillary tube and detected on the instrument. The binding constants (K^D) of small molecules to STAT3 protein were analyzed by Mo. analysis software.
(1) Microscale Thermophoresis Experiment
The method is as described in Example 40.

SK-hep1 = assay: Cell proliferation by MTS method, SK-hep1; format: cell-based; conditions: Homo sapiens, Liver Cancer
Text: as §1, §2

## Cn1c(C(=O)N2CCN(Cc3ccc(OCC(F)(F)F)cc3)CC2)cc2ccc(Oc3cnc(-c4nc(-c5ccc(C(F)(F)F)cc5)no4)cn3)cc21 [Example 6, (6-((5-(3-(4-(trifluoromethyl)phenyl)-1,2,4-oxadiazol-5-yl)pyrazin-2-yl)oxy)1-methyl-1H-indol-2-yl)(4-(4-(2,2,2-trifluoroethoxy)benzyl)piperazin-1-yl)methanone]
MIAPACA-2
  pIC50: 8.06
DU145
  pIC50: 7.91
H1975
  pIC50: 7.93
STAT3 protein
  pKd: > 8.00
PLC/PRF-5
  pIC50: 8.74
HCT-116
  pIC50: 7.95
SMMC7721
  pIC50: 8.19
HCT8
  pIC50: 7.68
HepG2
  pIC50: 7.92
H1299
  pIC50: 7.59
PANC-1
  pIC50: 8.09
[1]; PANC-1 subcutaneous model, gavage, WB737 5-20 mg/kg, IACS-010759 10 mg/kg, FIG. 2D/5C
  effect on the body weight of mice: no significant effect on the body weight of mice; also recorded: good tolerability
[1]; PANC-1 subcutaneous, BALB/c-nude mice, 5, 10, 20 mg/kg by gavage, 3 weeks, FIG. 2
  tumor growth (tumor volume and tumor weight): significantly inhibits the growth of pancreatic tumour
[1]; PANC-1 tumour tissues, FIG. 2E and 2F
  phosphorylation of STAT3^Y705/S727 bifunctional phosphorylation site in tumour tissue (WB and IHC): dose-dependently inhibits phosphorylation
SW1990
  pIC50: 8.89
LNCAP
  pIC50: 7.99
H23
  pIC50: 8.54
[2]
  concentration that completely inhibits the expression of STAT3-Tyr705 and Ser727: lower than 50 nM
PC-9
  pIC50: 7.67
MGC803
  pIC50: 8.44
STAT3 SH2 domain
  pKd: 8.65
SK-hep1
  pIC50: 7.73
